Biological target: T1, human α7 nAChR (Homo sapiens, UniProt P36544)
T1 construct: expressed in transfected cells; host or cells: GH4C1 cells (rat pituitary, ATCC CCL-82.2)
Assay: Evaluation of PAM activity with human α7 nACh receptor stably expressing cells (aequorin luminescence, FDSS7000, ACh EC20)
Type: cell-based
Settings: for PAM activity for α7 nAChR (in words): statement on Table 8 data; for α7PAM (%) @ 10 μmol/L: test compound 10 μmol/L, ACh at EC20, ratio of RLU (Max-Min) of test-compound wells to control wells
From the text: Evaluation of PAM Activity with Human α7 nACh Receptor Stably Expressing Cells
(1) Human α7 nAChR Stably Expressing Cells
Human α7 nAChR stably expressing cells were generated and cultured. In detail, GH4C1 cells derived from rat pituitary (cat#CCL-82.2, ATCC, USA) were used as a host cell. PcDNA3.1Zeo vector containing a nucleotide sequence encoding a protein GenBank BAC81731 and pcDNA3.1 vector containing human α7 nAChR gene (cat#V790-20, invitrogen, Carlsbad, Calif., USA) were transfected to the cells to give aequorins and human α7 nAChR stably expressing cells respectively. The aequorins and human α7 nAChR stably expressing cells were screened with Zeocin (cat#R25001, invitrogen, Carlsbad, Calif., USA) and Geneticin (cat#10131-027, invitrogen, Carlsbad, Calif., USA) respectively.
The cells were cultured in F-10 Nutrient Mixture (Ham) medium (cat#11550-043, invitrogen, Carlsbad, Calif., USA) containing 2.5% fetal bovine serum (cat#2917354, ICN Biomedicals, Inc, USA), 15% inactivated horse serum (cat#26050-088, invitrogen, Carlsbad, Calif., USA), 1 μg/mL Geneticin, and 5 μg/mL Puromycin (cat#14861-84, invitrogen, Carlsbad, Calif., USA), in a Collagen Type 1-coated dish (cat#4030-010, iwaki, Tokyo, Japan). During the culture, the medium was replaced with fresh medium in every 2 to 3 days, and the cells were treated with TrypLE Express (cat#45604-021, invitrogen, Carlsbad, Calif., USA) to collect them in every 7 days. Thus, the cells were subcultured.
7 Days after subculturing, the cells were treated with TrypLE Express to collect them when they were about 80% confluent. The cells were suspended in a reaction medium containing Hanks (cat#14065-056, invitrogen, Carlsbad, Calif., USA)/20 mmol/L Hepes (cat#15630-080, invitrogen, Carlsbad, Calif., USA), Buffer (pH 7.4), F-10 Nutrient Mixture (Ham), and 0.1 mg/mL Geneticin, and the suspension was seeded in a 384-well plate (cat#781090, Greiner, Germany) at 20000 cells/25 μL per well.
On the next day after seeding, Viviren (cat#E649X, Promega, Madison, Wis., USA) was added to the medium so that the final concentration could be 4 μmol/L (15 μL/well). The plates were centrifuged and then placed in the dark for 4 hours at room temperature.
(2) Preparation of the Test Samples
Each of the test compounds was dissolved in DMSO to prepare each test sample at a concentration of 1000-fold the final concentration. To the solution was added Hanks/20 mM HEPES/0.2% BSA (cat#A3803, Sigma, St. Louis, Mo., USA), and the concentration was adjusted to 6-fold the final concentration.
(3) Evaluation of PAM Activity
FDSS7000 (Hamamatsu Photonics) was used to detect the luminescence signal evoked by α7 nAChR stimulation. The cells and a luminescent substrate were put on a plate, and the test sample was added thereto. […] After the addition of ACh, the luminescence signal (the central wavelength: 465 nm) was measured for 138 seconds to calculate RLU (Max-Min). The ratio of the RLU (Max-Min) of the test-compound-containing wells to that of the control wells was defined as PAM activity.

T1 sequence (P36544 23-502): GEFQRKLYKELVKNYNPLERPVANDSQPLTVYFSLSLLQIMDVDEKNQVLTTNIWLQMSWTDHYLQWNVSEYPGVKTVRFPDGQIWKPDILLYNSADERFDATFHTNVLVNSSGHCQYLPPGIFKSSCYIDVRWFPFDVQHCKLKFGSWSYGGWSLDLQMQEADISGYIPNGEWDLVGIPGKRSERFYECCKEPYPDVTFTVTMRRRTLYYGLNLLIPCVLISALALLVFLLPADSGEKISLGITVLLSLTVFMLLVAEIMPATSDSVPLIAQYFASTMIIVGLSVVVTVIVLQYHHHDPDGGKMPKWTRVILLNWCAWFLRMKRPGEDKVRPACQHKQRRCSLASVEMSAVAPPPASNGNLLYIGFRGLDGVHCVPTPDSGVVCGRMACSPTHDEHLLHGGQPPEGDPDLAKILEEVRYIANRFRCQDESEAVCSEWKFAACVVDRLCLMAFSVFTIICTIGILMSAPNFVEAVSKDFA

| SMILES | PAM activity for α7 nAChR (in words) | α7PAM (%) @ 10 μmol/L [%] |
| --- | --- | --- |
| CCc1ccc2c(cnn2[C@H]2CC[C@@H](NC(=O)C3CCC(F)(F)CC3)CC2)c1 [Example 4, N-(cis-4-(5-ethyl-1H-indazol-1-yl)cyclohexyl)-4,4-difluorocyclohexanecarboxamide] | stronger PAM activity than others | 2344 |
| CCc1ccc2c(cnn2[C@H]2CC[C@@H](NC(=O)NC3CCC(F)(F)CC3)CC2)c1 [Example 5, 1-(4,4-difluorocyclohexyl)-3-(cis-4-(5-ethyl-1H-indazol-1-yl)cyclohexyl)urea] |  | 1368 |
| Cc1ccc2c(cnn2C2CCN(C(=O)NC3CCCCC3)CC2)c1 [Example 8, N-cyclohexyl-4-(5-methyl-1H-indazol-1-yl)piperidine-1-carboxamide] | stronger PAM activity than others | 3053 |
| Cc1ccc2c(cnn2C2CCN(C(=O)NC3CCC(F)(F)CC3)CC2)c1 [Example 13, N-(4,4-difluorocyclohexyl)-4-(5-methyl-1H-indazol-1-yl)piperidine-1-carboxamide] | stronger PAM activity than others | 3399 |
| CCCc1ccc2c(cnn2C2CCN(C(=O)NC3CCOCC3)CC2)c1 [Example 15, 4-(5-propyl-1H-indazol-1-yl)-N-(tetrahydro-2H-pyran-4-yl)piperidine-1-carboxamide] |  | 1025 |
| CCOc1ccc2c(cnn2C2CCN(C(=O)NC3CCCC3)CC2)c1 [Example 17] | stronger PAM activity than others |  |
| CCOc1ccc2c(cnn2C2CCN(C(=O)NC3CCCCC3)CC2)c1 [Example 18, N-cyclohexyl-4-(5-ethoxy-1H-indazol-1-yl)piperidine-1-carboxamide] | stronger PAM activity than others | 6779 |
| CCc1ccc2c(cnn2C2CCN(C(=O)NC3CCCC3)CC2)c1 [Example 20] | stronger PAM activity than others |  |
| CCc1ccc2c(cnn2C2CCN(C(=O)NC3CCCOC3)CC2)c1 (stereo not drawn) [Example 22, 4-(5-ethyl-1H-indazol-1-yl)-N-(tetrahydro-2H-pyran-3-yl)piperidine-1-carboxamide] |  | 1425 |
| CCc1ccc2c(cnn2C2CCN(C(=O)NC3CCC(F)(F)CC3)CC2)c1 [Example 23] | stronger PAM activity than others | 6196 |
| CCOc1ccc2c(cnn2C2CCN(C(=O)NC3CCC(F)(F)CC3)CC2)c1 [Example 27, N-(4,4-difluorocyclohexyl)-4-(5-ethoxy-1H-indazol-1-yl)piperidine-1-carboxamide] |  | 1673 |
| COc1ccc2c(cnn2C2CCN(C(=O)NC3CCCCC3)CC2)c1 [Example 40] | stronger PAM activity than others |  |
| COc1ccc2c(cnn2C2CCN(C(=O)NC3CCC(F)(F)CC3)CC2)c1 [Example 41, N-(4,4-difluorocyclohexyl)-4-(5-methoxy-1H-indazol-1-yl)piperidine-1-carboxamide] | stronger PAM activity than others | 3749 |
| Cc1ccc2c(c1)c(C)nn2C1CCN(C(=O)NC2CCC(F)(F)CC2)CC1 [Example 45, N-(4,4-difluorocyclohexyl)-4-(3,5-dimethyl-1H-indazol-1-yl)piperidine-1-carboxamide] |  | 1576 |
| CC(C)Oc1ccc2c(cnn2C2CCN(C(=O)NC3CCCCC3)CC2)c1 [Example 48, N-cyclohexyl-4-(5-isopropoxy-1H-indazol-1-yl)piperidine-1-carboxamide] |  | 1202 |
| CCc1cccc2c1cnn2C1CCN(C(=O)NC2CCC(F)(F)CC2)CC1 [Example 64, N-(4,4-difluorocyclohexyl)-4-(4-ethyl-1H-indazol-1-yl)piperidine-1-carboxamide] |  | 1133 |
| COCc1nn(C2CCN(C(=O)NC3CCCCC3)CC2)c2ccc(C)cc12 [Example 68] |  | 430 |
| Cc1ccc2c(cnn2C2CCN(C(=O)N[C@H]3CCCCC3(F)F)CC2)c1 [Example 79, (S)—N-(2,2-difluorocyclohexyl)-4-(5-methyl-1H-indazol-1-yl)piperidine-1-carboxamide] |  | 1064 |
| Cc1ccc2c(cnn2C2CCN(C(=O)N[C@H]3CCCC3(F)F)CC2)c1 [Example 80, (S)—N-(2,2-difluorocyclopentyl)-4-(5-methyl-1H-indazol-1-yl)piperidine-1-carboxamide] |  | 1033 |
| O=C(C1CCOCC1)N1CCC(n2ncc3cc(F)ccc32)CC1 [Example 104] |  | 190 |
| CCc1ccc2c(cnn2C2CCN(C(=O)C3CCOCC3)CC2)c1 [Example 111] |  | 410 |
| CCc1ccc2c(cnn2[C@H]2CC[C@@H](NC(=O)C3CCCCC3)CC2)c1 [Example 119] | stronger PAM activity than others |  |
| CCc1ccc2c(cnn2[C@H]2CC[C@@H](NC(=O)[C@H]3CC[C@H](OC)CC3)CC2)c1 [Example 122] |  | 410 |
| O=C(Nc1ccc(C(F)(F)F)nc1)N1CCC(n2ncc3cc(C4CC4)ccc32)CC1 [Example 187] |  | 220 |
| O=C(NC1CCC(F)(F)CC1)N1CCC(n2ncc3c(OC(F)F)cccc32)CC1 [Example 201] |  | 370 |
| O=C(NC1CCC(F)(F)CC1)N1CCC(n2ncc3cc(OC4CC4)ccc32)CC1 [Example 249, 4-[5-(cyclopropoxy)-1H-indazol-1-yl]-N-(4,4-difluorocyclohexyl)piperidine-1-carboxamide] |  | 1463 |

Other lines, results leading:

| PAM activity for α7 nAChR (in words) | α7PAM (%) @ 10 μmol/L [%] | SMILES |
| --- | --- | --- |
|  | 1764 | CCc1ccc2c(cnn2C2CCN(C(=O)N[C@H]3CC[C@H](OC)CC3)CC2)c1 [Example 16, 4-(5-ethyl-1H-indazol-1-yl)-N-(trans-4-methoxycyclohexyl)piperidine-1-carboxamide] |
|  | 430 | COCCCc1ccc2c(cnn2C2CCN(C(=O)N[C@H]3CC[C@H](OC)CC3)CC2)c1 [Example 32] |
|  | 420 | CCCc1ccc2c(cnn2C2CCN(C(=O)NC3CCC(OC)CC3)CC2)c1 (stereo not drawn) [Example 76] |
|  | 420 | Cc1ccc2c(cnn2C2CCN(C(=O)NC3CCC(OCC(F)(F)F)CC3)CC2)c1 (stereo not drawn) [Example 83] |
|  | 1467 | CCO[C@H]1CC[C@H](NC(=O)N2CCC(n3ncc4cc(C)ccc43)CC2)CC1 [Example 90, N-(trans-4-ethoxycyclohexyl)-4-(5-methyl-1H-indazol-1-yl)piperidine-1-carboxamide] |
|  | 89 | COC1CCC(NC(=O)N2CCC(n3ncc4c(Br)cccc43)CC2)CC1 (stereo not drawn) [Example 98] |
|  | 210 | CO[C@H]1CC[C@H](NC(=O)N2CCC(n3ncc4cc(-c5ccc(F)cc5)ccc43)CC2)CC1 [Example 155] |
|  | 200 | CCOc1cccc2c1cnn2C1CCN(C(=O)N[C@H]2CC[C@@H](OC)CC2)CC1 [Example 184] |
|  | 1034 | CO[C@H]1CCC[C@H](NC(=O)N2CCC(n3ncc4cc(C5CC5)ccc43)CC2)C1 [Example 211, 4-(5-cyclopropyl-1H-indazol-1-yl)-N-[(1S,3S)-3-methoxycyclohexyl]piperidine-1-carboxamide] |
|  | 800 | COCc1c(C)ccc2c1cnn2C1CCN(C(=O)NC2CCC(F)(F)CC2)CC1 [Example 213] |
| stronger PAM activity than others |  | COCC1CCC(NC(=O)N2CCC(n3ncc4cc(C)ccc43)CC2)CC1 (stereo not drawn) [Example 220] |
|  | 480 | CO[C@H]1CC[C@H](NC(=O)N2CCC(n3ncc4c(C)c(C)ccc43)CC2)CC1 [Example 225] |
|  | 860 | COC(C)c1c(C)ccc2c1cnn2C1CCN(C(=O)NC2CCC(F)(F)CC2)CC1 (stereo not drawn) [Example 232] |

Source: US9051295B2, “1-substituted indazole derivative” (Dainippon Sumitomo Pharma Co., Ltd., priority 2012, dated 2015)
